Assay results from ChEMBL document CHEMBL3784917, “Recent Progress in Histone Demethylase Inhibitors” (J Med Chem, 2016).

Experiments:
[1] = target: Lysine-specific demethylase 5B (Homo sapiens, UniProt Q9UGL1); test: Inhibition of KDM5B in human U2OS cells assessed as reduction in demethylation of H3K4me3 after 20 hrs by Hoechst 33342 staining based immunofluorescence assay; type: cell-based
[2] = target: Lysine-specific demethylase 6B (Homo sapiens, UniProt O15054); test: Inhibition of KDM6B (unknown origin) after 24 hrs by alphascreen assay
Lysine-specific demethylase 6B, sequence (O15054 whole entry, the tested form may be a part): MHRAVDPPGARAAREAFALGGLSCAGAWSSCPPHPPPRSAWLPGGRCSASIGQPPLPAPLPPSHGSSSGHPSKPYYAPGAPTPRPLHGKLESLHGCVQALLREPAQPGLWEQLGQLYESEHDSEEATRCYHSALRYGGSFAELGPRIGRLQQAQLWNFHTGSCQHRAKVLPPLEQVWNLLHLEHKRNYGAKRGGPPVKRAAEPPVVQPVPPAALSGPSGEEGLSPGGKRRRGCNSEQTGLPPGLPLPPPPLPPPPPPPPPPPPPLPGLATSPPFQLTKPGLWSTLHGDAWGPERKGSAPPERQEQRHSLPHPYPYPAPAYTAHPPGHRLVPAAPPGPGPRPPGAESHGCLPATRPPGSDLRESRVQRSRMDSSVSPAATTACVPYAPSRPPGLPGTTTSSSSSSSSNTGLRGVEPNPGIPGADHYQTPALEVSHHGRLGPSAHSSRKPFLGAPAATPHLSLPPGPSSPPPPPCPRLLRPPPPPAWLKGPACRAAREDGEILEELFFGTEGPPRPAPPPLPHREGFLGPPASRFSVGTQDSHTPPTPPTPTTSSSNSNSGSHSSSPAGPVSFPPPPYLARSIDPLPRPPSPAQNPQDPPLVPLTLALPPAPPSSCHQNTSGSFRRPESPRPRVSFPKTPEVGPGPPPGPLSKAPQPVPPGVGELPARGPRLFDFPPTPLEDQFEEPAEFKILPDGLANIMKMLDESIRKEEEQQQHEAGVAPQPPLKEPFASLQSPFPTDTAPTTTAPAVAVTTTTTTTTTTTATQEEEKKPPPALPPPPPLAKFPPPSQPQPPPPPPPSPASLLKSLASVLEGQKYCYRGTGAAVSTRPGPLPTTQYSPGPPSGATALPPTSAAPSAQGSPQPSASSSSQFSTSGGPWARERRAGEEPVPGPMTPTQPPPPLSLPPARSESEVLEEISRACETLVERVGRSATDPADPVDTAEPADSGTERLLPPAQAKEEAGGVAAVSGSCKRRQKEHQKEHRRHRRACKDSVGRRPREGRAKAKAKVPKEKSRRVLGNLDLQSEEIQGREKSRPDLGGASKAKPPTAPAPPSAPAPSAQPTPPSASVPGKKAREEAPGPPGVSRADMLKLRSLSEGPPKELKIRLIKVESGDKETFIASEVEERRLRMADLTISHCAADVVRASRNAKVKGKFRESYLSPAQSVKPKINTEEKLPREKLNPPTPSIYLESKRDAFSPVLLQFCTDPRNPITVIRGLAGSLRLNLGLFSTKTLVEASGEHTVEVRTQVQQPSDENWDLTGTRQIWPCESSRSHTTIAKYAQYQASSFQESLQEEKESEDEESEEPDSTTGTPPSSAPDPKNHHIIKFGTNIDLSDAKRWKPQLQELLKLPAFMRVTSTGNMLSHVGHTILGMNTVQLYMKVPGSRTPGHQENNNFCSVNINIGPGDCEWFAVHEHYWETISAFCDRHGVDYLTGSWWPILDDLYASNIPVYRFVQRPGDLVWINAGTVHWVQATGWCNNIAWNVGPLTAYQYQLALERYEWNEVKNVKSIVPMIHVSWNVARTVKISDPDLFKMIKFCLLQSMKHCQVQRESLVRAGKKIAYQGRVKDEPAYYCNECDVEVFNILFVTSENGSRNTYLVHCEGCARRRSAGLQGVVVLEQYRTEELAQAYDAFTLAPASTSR

[3] = target: Egl nine homolog 1 (Homo sapiens, UniProt Q9GZT9); test: Inhibition of PHD2 catalytic domain (unknown origin) after 24 hrs by alphascreen assay
Egl nine homolog 1, sequence (Q9GZT9 whole entry, the tested form may be a part): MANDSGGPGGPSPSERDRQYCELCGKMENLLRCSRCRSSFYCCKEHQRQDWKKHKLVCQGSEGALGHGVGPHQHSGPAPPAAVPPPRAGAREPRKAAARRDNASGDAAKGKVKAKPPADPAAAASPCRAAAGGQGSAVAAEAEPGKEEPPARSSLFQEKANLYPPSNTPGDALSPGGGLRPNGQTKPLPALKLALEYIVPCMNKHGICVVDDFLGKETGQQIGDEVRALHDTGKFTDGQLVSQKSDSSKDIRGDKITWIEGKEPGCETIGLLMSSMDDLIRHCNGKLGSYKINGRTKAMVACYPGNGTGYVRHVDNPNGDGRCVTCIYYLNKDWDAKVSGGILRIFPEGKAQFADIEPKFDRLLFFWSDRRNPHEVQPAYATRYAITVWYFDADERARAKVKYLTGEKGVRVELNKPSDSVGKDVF

[4] = target: T1, Lysine-specific demethylase 4A (Homo sapiens, UniProt O75164); test: Inhibition of KDM4A in human MCF7 cells assessed as increase in H3K9me3 level after 24 hrs by DAPI staining based immunofuorescence assay; type: cell-based
T1 sequence (O75164 whole entry): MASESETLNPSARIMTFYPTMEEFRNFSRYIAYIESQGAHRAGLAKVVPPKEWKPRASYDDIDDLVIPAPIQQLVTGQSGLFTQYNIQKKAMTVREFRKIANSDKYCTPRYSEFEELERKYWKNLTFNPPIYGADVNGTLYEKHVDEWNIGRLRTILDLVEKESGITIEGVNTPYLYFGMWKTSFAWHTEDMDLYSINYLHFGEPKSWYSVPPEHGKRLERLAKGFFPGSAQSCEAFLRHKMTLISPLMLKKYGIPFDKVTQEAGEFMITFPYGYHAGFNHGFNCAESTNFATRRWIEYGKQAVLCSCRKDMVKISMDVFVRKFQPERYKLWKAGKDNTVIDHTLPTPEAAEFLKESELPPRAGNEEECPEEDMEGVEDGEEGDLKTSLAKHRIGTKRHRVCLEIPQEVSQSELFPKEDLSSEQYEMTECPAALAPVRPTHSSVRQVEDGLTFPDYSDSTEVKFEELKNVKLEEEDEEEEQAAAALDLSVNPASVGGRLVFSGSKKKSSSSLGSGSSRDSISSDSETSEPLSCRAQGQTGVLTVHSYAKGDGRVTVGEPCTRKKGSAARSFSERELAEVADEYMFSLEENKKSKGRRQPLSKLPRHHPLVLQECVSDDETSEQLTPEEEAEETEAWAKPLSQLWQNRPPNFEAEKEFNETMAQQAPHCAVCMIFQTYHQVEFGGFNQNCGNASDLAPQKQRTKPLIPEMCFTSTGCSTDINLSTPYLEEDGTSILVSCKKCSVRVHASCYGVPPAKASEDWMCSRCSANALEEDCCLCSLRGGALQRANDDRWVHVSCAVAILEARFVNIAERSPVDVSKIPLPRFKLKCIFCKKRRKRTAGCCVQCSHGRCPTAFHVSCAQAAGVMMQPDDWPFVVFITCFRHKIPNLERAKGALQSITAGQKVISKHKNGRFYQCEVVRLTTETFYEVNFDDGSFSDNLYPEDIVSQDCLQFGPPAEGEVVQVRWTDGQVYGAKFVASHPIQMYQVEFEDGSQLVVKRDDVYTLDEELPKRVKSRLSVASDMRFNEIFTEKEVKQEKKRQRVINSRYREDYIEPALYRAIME

[5] = target: Lysine-specific demethylase 5C (Homo sapiens, UniProt P41229); test: Inhibition of KDM5C (unknown origin) preincubated for 15 mins followed by histone substrate addition measured after 1 hr by alphascreen assay
[6] = target: T1, Lysine-specific demethylase 4A; test: Inhibition of full-length FLAG-tagged KDM4A (unknown origin) expressed in human HeLa cells assessed as increase in H3K9me3 level after 24 hrs by DAPI staining based immunofuorescence assay; type: cell-based
[7] = target: T2, Lysine-specific demethylase 3A (Homo sapiens, UniProt Q9Y4C1); test: Inhibition of KDM3A (unknown origin) preincubated for 15 mins followed by histone substrate addition measured after 1 hr by alphascreen assay
T2 sequence (Q9Y4C1 whole entry): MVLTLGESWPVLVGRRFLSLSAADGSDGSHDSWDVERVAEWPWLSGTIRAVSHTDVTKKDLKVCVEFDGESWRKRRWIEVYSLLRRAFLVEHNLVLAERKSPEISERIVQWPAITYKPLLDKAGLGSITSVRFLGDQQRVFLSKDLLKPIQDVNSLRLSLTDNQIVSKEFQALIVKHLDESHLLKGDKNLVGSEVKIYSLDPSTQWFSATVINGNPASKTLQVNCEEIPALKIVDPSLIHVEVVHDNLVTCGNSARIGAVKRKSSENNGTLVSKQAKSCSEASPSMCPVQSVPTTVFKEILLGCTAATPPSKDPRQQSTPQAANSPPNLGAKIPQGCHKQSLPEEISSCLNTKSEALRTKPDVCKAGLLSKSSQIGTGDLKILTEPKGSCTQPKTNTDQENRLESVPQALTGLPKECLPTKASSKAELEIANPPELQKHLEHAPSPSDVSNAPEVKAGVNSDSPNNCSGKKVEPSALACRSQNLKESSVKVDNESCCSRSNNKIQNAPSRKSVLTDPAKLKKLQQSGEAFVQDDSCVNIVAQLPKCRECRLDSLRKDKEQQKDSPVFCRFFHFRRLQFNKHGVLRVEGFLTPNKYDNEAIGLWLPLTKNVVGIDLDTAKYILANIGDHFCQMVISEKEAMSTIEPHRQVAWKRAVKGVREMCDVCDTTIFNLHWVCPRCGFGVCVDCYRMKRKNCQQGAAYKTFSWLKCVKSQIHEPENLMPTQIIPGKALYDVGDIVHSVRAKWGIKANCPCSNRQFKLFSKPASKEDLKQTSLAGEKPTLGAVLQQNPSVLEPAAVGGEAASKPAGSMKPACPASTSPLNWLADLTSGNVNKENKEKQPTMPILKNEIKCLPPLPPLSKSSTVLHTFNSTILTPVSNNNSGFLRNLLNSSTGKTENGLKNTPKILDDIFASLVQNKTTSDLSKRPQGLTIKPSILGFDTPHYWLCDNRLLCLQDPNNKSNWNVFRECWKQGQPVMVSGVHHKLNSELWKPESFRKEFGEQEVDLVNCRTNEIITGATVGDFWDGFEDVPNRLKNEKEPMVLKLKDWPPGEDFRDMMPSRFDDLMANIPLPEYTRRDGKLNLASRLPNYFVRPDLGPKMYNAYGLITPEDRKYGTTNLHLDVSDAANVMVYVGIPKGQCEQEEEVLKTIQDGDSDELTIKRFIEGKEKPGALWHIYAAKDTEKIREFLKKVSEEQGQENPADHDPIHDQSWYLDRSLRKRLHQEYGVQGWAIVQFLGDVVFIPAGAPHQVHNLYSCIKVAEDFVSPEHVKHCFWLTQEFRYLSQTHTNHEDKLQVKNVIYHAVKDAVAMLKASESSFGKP

Lysine-specific demethylase 5B, sequence (Q9UGL1 whole entry): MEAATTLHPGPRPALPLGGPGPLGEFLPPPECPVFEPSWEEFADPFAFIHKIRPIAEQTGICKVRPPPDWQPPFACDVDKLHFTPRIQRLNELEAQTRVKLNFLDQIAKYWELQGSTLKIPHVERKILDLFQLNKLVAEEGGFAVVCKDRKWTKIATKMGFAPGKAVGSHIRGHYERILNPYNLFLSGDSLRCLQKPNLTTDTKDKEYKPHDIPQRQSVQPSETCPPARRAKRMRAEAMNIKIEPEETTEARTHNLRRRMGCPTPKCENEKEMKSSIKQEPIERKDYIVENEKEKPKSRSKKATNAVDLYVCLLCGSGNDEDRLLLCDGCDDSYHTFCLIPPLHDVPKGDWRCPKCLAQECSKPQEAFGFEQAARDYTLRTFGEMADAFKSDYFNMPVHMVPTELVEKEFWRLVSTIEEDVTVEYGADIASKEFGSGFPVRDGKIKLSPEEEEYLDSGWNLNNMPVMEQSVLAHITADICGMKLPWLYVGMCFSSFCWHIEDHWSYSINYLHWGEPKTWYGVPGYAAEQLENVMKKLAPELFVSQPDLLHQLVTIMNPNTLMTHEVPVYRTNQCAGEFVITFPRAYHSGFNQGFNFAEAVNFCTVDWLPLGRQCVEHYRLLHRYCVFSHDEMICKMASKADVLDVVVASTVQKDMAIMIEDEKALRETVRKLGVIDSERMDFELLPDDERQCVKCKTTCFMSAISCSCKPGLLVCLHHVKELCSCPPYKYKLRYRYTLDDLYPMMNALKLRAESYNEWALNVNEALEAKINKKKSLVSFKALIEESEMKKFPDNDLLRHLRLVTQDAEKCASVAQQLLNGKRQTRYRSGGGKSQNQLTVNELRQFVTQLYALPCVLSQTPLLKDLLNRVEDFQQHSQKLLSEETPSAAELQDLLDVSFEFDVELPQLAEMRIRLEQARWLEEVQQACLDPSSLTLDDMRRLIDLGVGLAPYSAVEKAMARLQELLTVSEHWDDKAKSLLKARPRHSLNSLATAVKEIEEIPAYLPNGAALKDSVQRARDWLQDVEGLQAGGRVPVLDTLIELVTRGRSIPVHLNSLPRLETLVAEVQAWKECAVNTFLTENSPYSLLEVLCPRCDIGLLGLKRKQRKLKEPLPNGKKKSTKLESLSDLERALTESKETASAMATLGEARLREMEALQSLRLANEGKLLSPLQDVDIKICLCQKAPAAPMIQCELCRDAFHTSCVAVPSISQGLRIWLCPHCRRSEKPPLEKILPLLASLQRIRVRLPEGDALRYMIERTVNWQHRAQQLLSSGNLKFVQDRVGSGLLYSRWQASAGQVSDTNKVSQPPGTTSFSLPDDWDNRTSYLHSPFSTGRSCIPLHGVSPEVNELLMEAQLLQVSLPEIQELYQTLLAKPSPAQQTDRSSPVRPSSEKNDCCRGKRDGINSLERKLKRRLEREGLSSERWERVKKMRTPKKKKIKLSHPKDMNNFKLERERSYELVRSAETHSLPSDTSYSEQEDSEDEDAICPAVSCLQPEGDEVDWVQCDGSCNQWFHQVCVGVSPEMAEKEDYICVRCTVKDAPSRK

An IC50 [1] of 1 µM was found for `CCN(CCN(C)C)C(=O)CNCc1cc(C(=O)O)ccn1` in this work.
An IC50 [2] greater than 100 µM and an IC50 [3] greater than 100 µM were found for `CCCCCCCCOC(=O)c1ccc(O)c2ncccc12` in this work.
An EC50 [4] of 12 µM, an IC50 [5] of 178 µM and an EC50 [6] of 9 µM were found for `Cc1ccsc1C(NC(=O)c1ccccc1)c1cc(Cl)c2cccnc2c1O` (racemic) in this work. For the same compound, the IC50 [7] was 191 µM.
